The results in this text go back to ChEMBL document CHEMBL4017448, “Novel pyrazolo[1,5-a]pyridines as orally active EP1 receptor antagonists: Synthesis, structure-activity relationship studies, and biological evaluation” (Bioorg Med Chem, 2017).

The target of series [1] is T1, Prostaglandin E2 receptor EP1 subtype (Rattus norvegicus, UniProt P70597).
T1 sequence (P70597 whole entry): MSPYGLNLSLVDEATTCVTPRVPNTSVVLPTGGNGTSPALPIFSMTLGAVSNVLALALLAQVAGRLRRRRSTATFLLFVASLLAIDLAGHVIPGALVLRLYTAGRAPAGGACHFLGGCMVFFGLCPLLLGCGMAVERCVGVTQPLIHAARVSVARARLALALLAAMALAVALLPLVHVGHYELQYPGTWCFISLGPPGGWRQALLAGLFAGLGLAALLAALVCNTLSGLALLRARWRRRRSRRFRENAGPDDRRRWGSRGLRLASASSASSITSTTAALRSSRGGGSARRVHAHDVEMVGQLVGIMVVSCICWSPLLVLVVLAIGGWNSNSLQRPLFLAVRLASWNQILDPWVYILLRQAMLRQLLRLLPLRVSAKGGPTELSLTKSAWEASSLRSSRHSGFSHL
Briefly: Antagonist activity at rat EP1 receptor expressed in African green monkey COS1 cells assessed as decrease in prostaglandin E2-induced increase in intracellular calcium level incubated for 90 mins measured for 60 secs by Fluo 4-AM dye based fluorescence assay. The class given is functional, cell-based. (In general: Calcium flux is commonly read through the fluorescence of an indicator in the cells.)

Series [2] in a line: AUC (0 to 8 hrs) in rat at 1 mg/kg, iv. The following applies: in vivo. In kind it is ADME, organism-based. Also noted: dose 1 mg/kg, time < 8 hr, route intravenous.
A short description of series [3]: Half life in rat at 1 mg/kg, po. In kind it is ADME, organism-based. The following applies: in vivo.
Series [4] in a line: Oral bioavailability in rat at 1 mg/kg. In kind it is ADME, organism-based. Particulars: in vivo.
A short description of series [5]: AUC (0 to infinity) in rat at 1 mg/kg, po. In kind it is ADME, organism-based. Also noted: dose 1 mg/kg, route oral, time infinity. Particulars: in vivo.
The nature of series [6]: AUC (0 to infinity) in rat at 1 mg/kg, iv. More on the design: dose 1 mg/kg, time infinity, route intravenous. The following applies: in vivo. The class given is ADME, organism-based.
Series [7] can be described thus: Volume of distribution in rat at 1 mg/kg, iv. In kind it is ADME, organism-based. The following applies: in vivo.
Series [8] concerns Rattus norvegicus. In words: Reduction in 17-PTP induced bladder contraction in Wistar rat assessed as change in intravesical pressure administered intraduodenal pretreated for 5 followed by 17-PTP challenge at every 30 mins interval for 245 mins. The class given is functional.
Series [9] is described as follows: Half life in rat at 1 mg/kg, iv. The class given is ADME, organism-based. Particulars: in vivo.
Series [10] is described as follows: Total clearance in rat at 1 mg/kg, iv. In kind it is ADME, organism-based. Particulars: in vivo.
In series [11] the test system is Rattus norvegicus. Briefly: Reduction in 17-PTP induced bladder contraction in Wistar rat assessed as change in intravesical pressure administered intravenously pretreated for 5 followed by 17-PTP challenge at every 30 mins interval for 245 mins. In kind it is functional.
Series [12] can be described thus: AUC (0 to 8 hrs) in rat at 1 mg/kg, po. The class given is ADME, organism-based. Also noted: time < 8 hr, dose 1 mg/kg, route oral. Particulars: in vivo.

With `Cc1cc(C(=O)O)nn1Cc1cc(Cl)cc2cc(C3CCCC3)nn12`, the IC50 in series [1] is 410 nM. The same measure, in the same setting: to `CC(C)c1cc(C(=O)O)nn1Cc1cc(Cl)cc2cc(-c3ccccc3)nn12` belongs 1200 nM; to `CCc1cc(C(=O)O)nn1Cc1cc(Cl)cc2cc(-c3ccccc3)nn12`, 300 nM; to `Cc1cc(C(=O)O)nn1Cc1ccc(Cl)c2cc(-c3ccccc3)nn12`, 2600 nM. Consider `Cc1cc(C(=O)O)nn1Cc1c(Cl)ccc2cc(-c3ccccc3)nn12`, for which the IC50 in series [1] came out at 540 nM. On the same count and under the same terms, under `CC(=O)c1cc(Cn2nc(C(=O)O)cc2C)n2nc(-c3ccccc3)cc2c1` stands 600 nM.

In the case of `CC(C)Cc1cc(C(=O)O)nn1Cc1cc(Cl)cc2cc(-c3ccccc3)nn12`, the IC50 in series [1] came to 2000 nM. As to `COc1cccc(-c2cc3cc(Cl)cc(Cn4nc(C(=O)O)cc4C)n3n2)c1`, in series [1], the concentration for half-maximal inhibition (IC50) was 110 nM.

On to `COc1ccc(Cn2nc(C(=O)O)cc2C)n2nc(-c3ccccc3)cc12`, for which the concentration for half-maximal inhibition (IC50) in series [1] was 1100 nM. Turning to `Cc1cc(C(=O)O)nn1Cc1cc(Cl)cc2cc(-c3ccccc3Cl)nn12`, the IC50 in series [1] was 220 nM. With `COc1ccc2cc(-c3ccccc3)nn2c1Cn1nc(C(=O)O)cc1C`, the IC50 in [1] was 1500 nM. Take `Cc1cc(Cn2nc(C(=O)O)cc2C)n2nc(-c3ccccc3)cc2c1`: in [1], the IC50 stood at 450 nM. `Cc1cc(C(=O)O)nn1Cc1cc(Cl)cc2cc(C3CCCCC3)nn12`: the IC50 in [1] amounted to 71 nM.

Regarding `Cc1cc(C(=O)O)nn1Cc1cccc2cc(-c3ccccc3)nn12`, the concentration for half-maximal inhibition (IC50) in [1] amounted to 120 nM. Turning to `Cc1cc(C(=O)O)nn1Cc1cc(Cl)cc2cc(C(C)(C)C)nn12`, in [1], the IC50 came to 2100 nM.

Take `Cc1cc(C(=O)O)nn1Cc1cc(Cl)cc2cc(C3CC3)nn12`: the IC50 in series [1] came to 180 nM. `Cc1cc(C(=O)O)nn1Cc1cc(Cl)cc2cc(-c3ccccc3)oc12`: in [1], the half-maximal inhibitory concentration (IC50) amounted to 22 nM.

With `CCCCc1cc2cc(Cl)cc(Cn3nc(C(=O)O)cc3C)n2n1`, in series [1], the IC50 came out at 1900 nM. Turning to `COc1ccc(-c2cc3cc(Cl)cc(Cn4nc(C(=O)O)cc4C)n3n2)cc1`, the concentration for half-maximal inhibition (IC50) in series [1] is 410 nM. On the same count and under the same terms, under `COc1cc(Cn2nc(C(=O)O)cc2C)n2nc(-c3ccccc3)cc2c1` stands 9600 nM. On to `C=Cc1cc(Cn2nc(C(=O)O)cc2C)n2nc(-c3ccccc3)cc2c1`, for which the IC50 in [1] is 360 nM. Turning to `Cc1cc(C(=O)O)nn1Cc1cc(C#N)cc2cc(-c3ccccc3)nn12`, the half-inhibitory concentration (IC50) in series [1] came out at 1000 nM. As to `Cc1cc(C(=O)O)nn1Cc1cc(Cl)cc2cc(-c3ccc(Cl)cc3)nn12`, the IC50 in series [1] is 290 nM. On the same count and under the same terms, to `O=C(O)c1ccn(Cc2cc(Cl)cc3cc(-c4ccccc4)nn23)n1` belongs 89 nM; to `Cc1cc(C(=O)O)nn1Cc1cc(Cl)cc2cc(-c3cccc(Cl)c3)nn12`, 150 nM. For `O=C(O)c1ccn(Cc2cc(Cl)cc3cc(-c4ccccc4)nn23)c1`, the IC50 in series [1] was 190 nM. Still for that read-out and setting: under `COc1ccccc1-c1cc2cc(Cl)cc(Cn3nc(C(=O)O)cc3C)n2n1` stands 840 nM. With `Cc1cc(C(=O)O)nn1Cc1cc(Cl)cc2cc(-c3ccccc3)nn12`, the AUC(0-t) at 8 h in series [2] is 5010 ng·h/mL; in [12], 4870 ng·h/mL. Further, the results for the half-life in series [3] and in series [9] were 4.28 h and 4.99 h, respectively. The bioavailability in series [4] was found to be 81%. Also, the area under the curve AUC(0-inf) is 6030 ng·h/mL in series [5] and 7470 ng·h/mL in series [6]. This molecule came in with a volume of distribution (Vd) in series [7] of 0.908 L/kg. Further, in [1], the half-maximal inhibitory concentration (IC50) worked out at 9.4 nM. Besides, the Activity result in the series on Rattus norvegicus [8] and in the series on Rattus norvegicus [11] was “Dose-dependent effect” throughout. The clearance in series [10] came out at 2.59 mL/min/kg. As for `CCCc1cc(C(=O)O)nn1Cc1cc(Cl)cc2cc(-c3ccccc3)nn12`, the concentration for half-maximal inhibition (IC50) in series [1] turned out to be 97 nM. For the molecule `CCCC/C=C/c1cc(Cn2nc(C(=O)O)cc2C)n2nc(-c3ccccc3)cc2c1`, the IC50 in series [1] amounted to 1500 nM.

Consider `Cc1cc(C(=O)O)nn1Cc1cc(C(F)(F)F)cc2cc(-c3ccccc3)nn12`, for which the IC50 in [1] stood at 300 nM. Consider `Cc1cc(C(=O)O)nn1Cc1cc(Cl)cc2cc(CC(C)C)nn12`, for which, in series [1], the IC50 is 1400 nM.

As usually defined, the IC50 is the midpoint of a concentration-inhibition curve. The term AUC(0-t) denotes the area under the concentration-time curve up to a stated or last time point. The term half-life denotes the time in which the quantity being followed falls by half. The bioavailability is dose-corrected exposure relative to a reference, in per cent. One may read the AUC(0-inf) as the area under the concentration-time curve extrapolated to infinity. One may read the Vd as a proportionality between amount in the body and measured concentration, not a real space. A word on the clearance: it is the volume of plasma or blood freed of the substance per unit of time.
